This is an account of results in ChEMBL document CHEMBL1201862, “PubChem BioAssay data set” (2004).

The structures appear in SMILES notation. Active and inactive are the calls of the source.

For one assay, the target named is Beta-galactosidase (Escherichia coli, UniProt Q8VNN2). Put plainly: beta-galactosidase enzyme inhibitors and activators, dose response, artefact control for CCR6 antagonist project, biochemical, E. coli enzyme, set 3 (AID 504712). Type of assay: functional.
For another assay, the target named is Nonstructural protein 1 (Influenza A virus, UniProt Q194T2). It is filed as functional, Influenza A virus (A/California/07/2009(H1N1)).
Another assay deals with T1, Hexokinase HKDC1 (Homo sapiens, UniProt Q2TB90).
T1 sequence (Q2TB90 whole entry): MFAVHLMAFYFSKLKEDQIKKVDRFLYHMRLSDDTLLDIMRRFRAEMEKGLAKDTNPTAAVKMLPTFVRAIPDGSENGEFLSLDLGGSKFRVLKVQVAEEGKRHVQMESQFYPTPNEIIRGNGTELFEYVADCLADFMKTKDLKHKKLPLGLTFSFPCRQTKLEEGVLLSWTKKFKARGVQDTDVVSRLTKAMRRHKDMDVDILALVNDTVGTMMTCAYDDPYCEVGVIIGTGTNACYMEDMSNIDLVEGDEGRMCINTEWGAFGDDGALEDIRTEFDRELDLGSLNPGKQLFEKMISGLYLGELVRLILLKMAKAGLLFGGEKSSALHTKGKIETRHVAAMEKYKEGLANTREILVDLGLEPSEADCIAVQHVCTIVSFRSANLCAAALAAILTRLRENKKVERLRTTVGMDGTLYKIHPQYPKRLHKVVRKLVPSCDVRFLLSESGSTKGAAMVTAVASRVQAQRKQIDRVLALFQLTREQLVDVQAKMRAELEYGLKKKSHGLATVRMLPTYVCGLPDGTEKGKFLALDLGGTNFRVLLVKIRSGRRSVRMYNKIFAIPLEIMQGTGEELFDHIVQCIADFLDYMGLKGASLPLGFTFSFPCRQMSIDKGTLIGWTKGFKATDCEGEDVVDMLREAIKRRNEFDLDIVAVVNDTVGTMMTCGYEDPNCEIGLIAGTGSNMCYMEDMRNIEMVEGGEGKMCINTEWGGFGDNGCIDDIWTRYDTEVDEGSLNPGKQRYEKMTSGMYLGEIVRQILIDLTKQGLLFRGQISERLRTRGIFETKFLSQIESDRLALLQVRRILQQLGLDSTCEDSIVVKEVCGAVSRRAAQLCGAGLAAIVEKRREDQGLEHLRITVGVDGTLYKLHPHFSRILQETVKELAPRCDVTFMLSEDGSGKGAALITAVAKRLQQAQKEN
Kind of assay: HKDC1 hexokinase inhibitors, dose response, biochemical, W721R variant (AID 504729). It is filed as functional.

Another assay has as its target Mu-type opioid receptor (Homo sapiens, UniProt P35372). Kind of assay: SAR Analysis of Antagonists of the MOR Receptor using an Image-Based Assay - Set 3. [Related pubchem assays (depositor defined):AID1777, AID1785, AID1786, AID1966, AID2133, AID2136, AID2284, AID2285, AID2420]. It is filed as functional.
Assay [1] concerns the target T2, Kappa-type opioid receptor (Homo sapiens, UniProt P41145). Put plainly: SAR analysis of small molecule antagonists of the kappa opioid receptor via a luminescent beta-arrestin assay - Set 6. [Related pubchem assays (depositor defined):AID1777, AID1778, AID1785, AID1786, AID1966, AID2133, AID2136, AID2285]. Type of assay: functional.
Assay [2] has as its target T2, Kappa-type opioid receptor. Kind of assay: SAR analysis of small molecule antagonists of the kappa opioid receptor via a luminescent beta-arrestin assay - Set 4. [Related pubchem assays (depositor defined):AID1777, AID1778, AID1785, AID1786, AID1966, AID2133, AID2136, AID2285]. Type of assay: functional.
Assay [3] deals with Delta-type opioid receptor (Homo sapiens, UniProt P41143). Put plainly: SAR Analysis of Antagonists of the DOR Receptor using an Image-Based Assay - Set 3. [Related pubchem assays (depositor defined):AID1777, AID1785]. It is filed as functional.
Assay [4] has as its target T2, Kappa-type opioid receptor. Put plainly: SAR analysis of Antagonists of the Kappa Opioid Receptor (KOR) using an Image-Based Assay - Set 4. [Related pubchem assays (depositor defined):AID1777, AID1785]. Type of assay: functional.
A short description of assay [5]: cytotoxicity in NIH/3T3 mouse fibroblasts, dose response, cytotoxicity control, cell-based, mouse embryonic fibroblasts, dry powder, set 2 (AID 493247). Type of assay: functional. The settings on record: Fibroblast.
The target of assay [6] is T3, Short transient receptor potential channel 4 (Mus musculus, UniProt Q9QUQ5).
T3 sequence (Q9QUQ5 whole entry): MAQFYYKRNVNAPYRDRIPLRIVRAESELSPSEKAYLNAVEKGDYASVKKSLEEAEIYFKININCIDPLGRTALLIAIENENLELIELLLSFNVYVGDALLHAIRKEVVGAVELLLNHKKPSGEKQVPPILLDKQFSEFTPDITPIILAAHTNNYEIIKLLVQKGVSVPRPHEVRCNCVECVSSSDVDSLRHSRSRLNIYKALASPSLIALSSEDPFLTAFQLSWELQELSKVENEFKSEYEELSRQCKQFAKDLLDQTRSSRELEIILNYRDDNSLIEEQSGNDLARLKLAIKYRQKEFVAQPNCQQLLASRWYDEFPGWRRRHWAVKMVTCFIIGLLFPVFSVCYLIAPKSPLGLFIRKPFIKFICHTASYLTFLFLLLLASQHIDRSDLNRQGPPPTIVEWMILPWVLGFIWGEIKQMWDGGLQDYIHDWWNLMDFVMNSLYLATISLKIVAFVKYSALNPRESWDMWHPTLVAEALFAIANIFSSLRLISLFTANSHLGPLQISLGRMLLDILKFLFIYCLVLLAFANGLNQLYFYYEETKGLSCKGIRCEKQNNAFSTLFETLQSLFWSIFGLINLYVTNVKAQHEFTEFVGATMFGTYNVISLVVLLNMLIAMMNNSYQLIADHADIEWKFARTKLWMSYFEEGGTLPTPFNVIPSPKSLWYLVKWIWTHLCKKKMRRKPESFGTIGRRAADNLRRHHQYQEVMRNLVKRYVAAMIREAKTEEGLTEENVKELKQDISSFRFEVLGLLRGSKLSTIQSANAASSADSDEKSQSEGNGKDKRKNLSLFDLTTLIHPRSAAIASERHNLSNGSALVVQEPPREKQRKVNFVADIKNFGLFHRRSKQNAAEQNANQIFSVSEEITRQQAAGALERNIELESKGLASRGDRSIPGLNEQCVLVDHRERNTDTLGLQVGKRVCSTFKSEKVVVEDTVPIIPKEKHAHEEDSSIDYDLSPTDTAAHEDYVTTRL
Kind of assay: TRPC4 positive allosteric modulators, dose response, cell-based, HEK293 TRPC4/mu-opioid, Fluo-4 calcium, EC20 DAMGO (AID 434941).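 Also: HEK293 cells coexpressing TRPC4 and mu opioid receptor stimulated by EC20 DAMGO.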 It is filed as functional.

The subject of assay [7] is Streptococcus sp. 'group A'. Kind of assay: growth inhibition of control SK(-) GAS strain, dose response, counter-screen for streptokinase expression inhibitor project, luminescence, kanamycin, BacTiterGlo, confirmation (AID 1900). It is filed as functional, organism-based. A general note: A counterscreen serves to expose hits that act by an unwanted route or on another target.

Another assay has as its target NS3 (Hepatitis C virus, UniProt A3EZJ3). Kind of assay: PubChem AID 2173. Details: species or system Hepacivirus hominis.
Another assay deals with Streptococcus. Kind of assay: Group A Streptococcus viability loss, dose response, counter-screen for streptokinase expression inhibitor project, luminescence, BacTiterGlo (AID 1915).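 Also: potency for reduction of bacterial viability or growth.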 It is filed as functional, organism-based.
The target of a further assay is T4, Caspase-3 (Homo sapiens, UniProt P42574).
T4 sequence (P42574 whole entry): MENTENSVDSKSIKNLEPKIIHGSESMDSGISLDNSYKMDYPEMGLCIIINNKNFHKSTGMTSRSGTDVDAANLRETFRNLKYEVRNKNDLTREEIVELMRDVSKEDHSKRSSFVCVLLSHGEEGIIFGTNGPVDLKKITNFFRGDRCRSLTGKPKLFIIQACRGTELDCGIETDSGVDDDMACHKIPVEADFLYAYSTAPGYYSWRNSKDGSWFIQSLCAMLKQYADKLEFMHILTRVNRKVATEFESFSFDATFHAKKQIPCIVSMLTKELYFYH
Put plainly: procaspase-3 activators, dose response, biochemical, absorbance (AID 489014).

In another assay the target is Caspase-7 (Homo sapiens, UniProt P55210). Put plainly: procaspase-7 activators, dose response, counter-screen for procaspase-3 activator project, biochemical, absorbance (AID 489013).
The test system of the next assay is INS1. Put plainly: beta cell apoptosis inhibitors, cytokine rescue, dose response, luminescence, retest (AID 449756).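 Also: cell death triggered by IL-1 beta plus TNF-alpha plus IFN-gamma mixture; protective hits raise ATP signal compared with cytokine alone wells.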 Type of assay: functional, cell-based. To be noted: Rattus norvegicus, INS1.
The next assay addresses Albumin (Bos taurus, UniProt P02769). Kind of assay: Counterscreen for inhibitors of T-cell receptor (TCR)-CD3 interaction: Fluorescence-based biochemical high throughput dose response assay to identify inhibitors of T-cell receptor (TCR)-CD3 interaction using a TAMRA-labeled BSA probe. It is filed as functional.

By IC50 is commonly meant the midpoint of a concentration-inhibition curve. As usually defined, the AC50 is the midpoint of the concentration-response curve, whichever way the signal moves. In general, EC50 refers to the concentration that produces a half-maximal response.

T2 sequence (P41145 whole entry): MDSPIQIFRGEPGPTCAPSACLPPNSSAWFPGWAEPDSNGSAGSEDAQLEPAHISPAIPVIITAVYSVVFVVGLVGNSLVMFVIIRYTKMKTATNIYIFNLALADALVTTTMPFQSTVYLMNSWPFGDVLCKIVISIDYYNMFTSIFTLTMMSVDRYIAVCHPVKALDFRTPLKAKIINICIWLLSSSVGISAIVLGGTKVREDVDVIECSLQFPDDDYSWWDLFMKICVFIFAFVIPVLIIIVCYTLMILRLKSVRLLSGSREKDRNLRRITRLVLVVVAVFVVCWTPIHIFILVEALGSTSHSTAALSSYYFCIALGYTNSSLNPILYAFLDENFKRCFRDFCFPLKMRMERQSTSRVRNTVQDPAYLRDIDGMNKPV
Chain of Caspase-7 (P55210 24-198 limits assumed): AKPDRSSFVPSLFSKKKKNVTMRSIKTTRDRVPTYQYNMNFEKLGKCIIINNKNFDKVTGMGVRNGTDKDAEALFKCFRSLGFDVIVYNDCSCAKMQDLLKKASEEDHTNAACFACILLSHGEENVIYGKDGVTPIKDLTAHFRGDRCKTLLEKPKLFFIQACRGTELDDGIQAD
Chain of Caspase-7 (P55210 207-303 limits assumed): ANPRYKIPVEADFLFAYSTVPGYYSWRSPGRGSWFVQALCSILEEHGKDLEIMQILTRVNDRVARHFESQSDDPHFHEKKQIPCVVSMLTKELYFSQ
Chain of Albumin (P02769 whole entry): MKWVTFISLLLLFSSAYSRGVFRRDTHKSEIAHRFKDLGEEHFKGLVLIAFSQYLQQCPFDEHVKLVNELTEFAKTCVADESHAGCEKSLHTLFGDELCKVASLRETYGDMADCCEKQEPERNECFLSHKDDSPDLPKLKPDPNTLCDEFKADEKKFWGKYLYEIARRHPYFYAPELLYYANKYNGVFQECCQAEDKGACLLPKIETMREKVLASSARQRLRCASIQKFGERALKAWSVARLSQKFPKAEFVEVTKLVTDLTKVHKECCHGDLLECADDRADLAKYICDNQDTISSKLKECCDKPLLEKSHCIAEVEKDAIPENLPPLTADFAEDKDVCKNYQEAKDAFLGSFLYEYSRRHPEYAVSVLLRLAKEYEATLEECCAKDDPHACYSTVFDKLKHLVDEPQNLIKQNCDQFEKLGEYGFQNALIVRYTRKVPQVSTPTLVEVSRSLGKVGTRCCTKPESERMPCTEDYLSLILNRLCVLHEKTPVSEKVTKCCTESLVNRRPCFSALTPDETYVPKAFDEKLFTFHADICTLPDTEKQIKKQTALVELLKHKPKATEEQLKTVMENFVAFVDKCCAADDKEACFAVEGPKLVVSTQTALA
Chain of Beta-galactosidase (Q8VNN2 whole entry): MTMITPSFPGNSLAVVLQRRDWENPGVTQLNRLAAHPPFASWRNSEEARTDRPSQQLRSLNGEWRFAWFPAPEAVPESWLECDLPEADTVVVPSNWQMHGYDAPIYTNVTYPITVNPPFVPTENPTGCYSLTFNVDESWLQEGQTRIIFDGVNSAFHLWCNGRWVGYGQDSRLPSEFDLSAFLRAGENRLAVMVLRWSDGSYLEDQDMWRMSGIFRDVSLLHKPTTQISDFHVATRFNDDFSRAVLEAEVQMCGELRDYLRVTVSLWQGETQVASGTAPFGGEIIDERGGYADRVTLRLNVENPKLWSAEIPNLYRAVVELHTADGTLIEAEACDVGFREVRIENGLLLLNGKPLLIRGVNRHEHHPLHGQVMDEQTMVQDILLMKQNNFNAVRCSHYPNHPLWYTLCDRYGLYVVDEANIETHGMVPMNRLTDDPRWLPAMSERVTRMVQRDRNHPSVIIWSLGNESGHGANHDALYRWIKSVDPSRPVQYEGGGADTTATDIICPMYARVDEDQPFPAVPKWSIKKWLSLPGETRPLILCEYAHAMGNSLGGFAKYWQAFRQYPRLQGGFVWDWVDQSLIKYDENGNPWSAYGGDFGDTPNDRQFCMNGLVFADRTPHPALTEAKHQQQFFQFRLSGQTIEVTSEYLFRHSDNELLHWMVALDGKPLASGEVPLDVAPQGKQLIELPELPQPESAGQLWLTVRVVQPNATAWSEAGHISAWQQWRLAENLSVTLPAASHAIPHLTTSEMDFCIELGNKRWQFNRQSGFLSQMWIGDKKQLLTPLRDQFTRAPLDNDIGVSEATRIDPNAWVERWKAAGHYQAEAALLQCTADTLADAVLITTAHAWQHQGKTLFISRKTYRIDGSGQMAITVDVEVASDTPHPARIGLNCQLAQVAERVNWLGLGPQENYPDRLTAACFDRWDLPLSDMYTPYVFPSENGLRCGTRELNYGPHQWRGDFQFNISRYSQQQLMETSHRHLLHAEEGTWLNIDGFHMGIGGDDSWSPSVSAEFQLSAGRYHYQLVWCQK
Chain of Nonstructural protein 1 (Q194T2 whole entry): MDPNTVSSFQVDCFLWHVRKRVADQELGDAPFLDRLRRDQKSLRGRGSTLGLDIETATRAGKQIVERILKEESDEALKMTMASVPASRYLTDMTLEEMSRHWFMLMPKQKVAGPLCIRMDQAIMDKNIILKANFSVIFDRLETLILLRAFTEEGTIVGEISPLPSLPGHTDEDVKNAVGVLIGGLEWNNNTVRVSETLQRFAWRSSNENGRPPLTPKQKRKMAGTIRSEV
Chain of Delta-type opioid receptor (P41143 whole entry): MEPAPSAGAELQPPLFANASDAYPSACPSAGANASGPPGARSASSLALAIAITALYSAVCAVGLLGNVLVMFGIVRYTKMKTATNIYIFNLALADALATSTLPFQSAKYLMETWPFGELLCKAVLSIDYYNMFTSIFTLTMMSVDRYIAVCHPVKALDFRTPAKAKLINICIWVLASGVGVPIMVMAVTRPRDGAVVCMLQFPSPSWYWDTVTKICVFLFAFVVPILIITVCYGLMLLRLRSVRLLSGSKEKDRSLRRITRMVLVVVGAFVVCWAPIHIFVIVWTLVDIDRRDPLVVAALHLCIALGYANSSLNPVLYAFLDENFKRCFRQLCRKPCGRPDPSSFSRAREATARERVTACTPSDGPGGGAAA
Chain of Mu-type opioid receptor (P35372 whole entry): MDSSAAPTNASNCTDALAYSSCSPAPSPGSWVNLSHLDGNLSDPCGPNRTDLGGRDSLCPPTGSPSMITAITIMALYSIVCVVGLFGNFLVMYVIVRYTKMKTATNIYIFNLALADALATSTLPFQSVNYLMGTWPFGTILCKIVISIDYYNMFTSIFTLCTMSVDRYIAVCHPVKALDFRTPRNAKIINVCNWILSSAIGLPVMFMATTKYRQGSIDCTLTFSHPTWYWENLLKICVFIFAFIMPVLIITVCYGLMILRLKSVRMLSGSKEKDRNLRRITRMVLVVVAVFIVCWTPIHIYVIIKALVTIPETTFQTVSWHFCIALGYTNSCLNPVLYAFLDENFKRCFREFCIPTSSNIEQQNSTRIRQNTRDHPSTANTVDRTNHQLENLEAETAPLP
Chain of NS3 (A3EZJ3 whole entry): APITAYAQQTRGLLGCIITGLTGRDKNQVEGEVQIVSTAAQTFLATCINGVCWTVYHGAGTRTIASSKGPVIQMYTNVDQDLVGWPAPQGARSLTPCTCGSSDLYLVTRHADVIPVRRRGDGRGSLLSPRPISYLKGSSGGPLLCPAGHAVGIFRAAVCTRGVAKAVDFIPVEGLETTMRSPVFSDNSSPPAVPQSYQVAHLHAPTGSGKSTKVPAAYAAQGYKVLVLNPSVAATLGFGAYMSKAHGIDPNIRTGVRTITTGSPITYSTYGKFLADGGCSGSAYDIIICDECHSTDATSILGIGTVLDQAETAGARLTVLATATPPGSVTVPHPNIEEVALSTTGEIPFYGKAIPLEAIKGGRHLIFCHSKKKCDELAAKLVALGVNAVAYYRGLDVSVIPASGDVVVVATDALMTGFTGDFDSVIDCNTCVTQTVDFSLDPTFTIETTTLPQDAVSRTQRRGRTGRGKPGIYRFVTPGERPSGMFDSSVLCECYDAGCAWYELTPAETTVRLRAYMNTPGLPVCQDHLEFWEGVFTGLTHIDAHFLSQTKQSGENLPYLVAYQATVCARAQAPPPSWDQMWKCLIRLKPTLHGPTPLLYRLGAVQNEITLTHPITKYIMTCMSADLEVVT

In the case of `CCOC(=O)C1=C(Cc2ccc(OC)cc2)C(=O)c2ccccc2C1=O`, the IC50 was > 66.6 µM (inactive) on Beta-galactosidase, 42.9 µM (active) on Nonstructural protein 1 and 7.57 µM (active) on Hexokinase HKDC1.

On to `Cc1ccc(S(=O)(=O)N2CCc3cc(C(=O)NCCN(Cc4ccccc4)C(C)C)ccc3C2)cc1`, for which the IC50 on Mu-type opioid receptor is 15.1 µM (inactive); in assay [1], 0.0675 µM (active); in assay [2], 0.0467 µM (active); in [3], > 32 µM (inactive); in assay [4], < 0.0031 µM (active).

Take `CN(Cc1ccccc1)C(=O)C1CCCN(Cc2ccc(C(F)(F)F)cc2)C1` (configuration not stated): in [5], the AC50 was 61.6 µM (active).

In the case of `COC(=O)[C@@]12CCCCN1[C@H](c1ccc(-c3cccc(Cl)c3)c(OC)c1)[C@H]1C(=O)N(C)C(=O)[C@H]12`, the EC50 in assay [6] was 2.11 µM (active).

With `Oc1c(Br)cc(Br)cc1/C=N/NC(=S)N[C@H]1CC2C=CC1C2` (some centres not stated), the EC50 in assay [7] is 0.109 µM (active); with Streptococcus it was 0.448 µM (active); on Caspase-3, > 9.47 µM (active); on Caspase-7, > 85.3 µM (inactive). For the same molecule, the results for the IC50 at NS3 and on Albumin were 7.8 µM (active) and > 94.1 µM (inactive), respectively. Also, the AC50 in the assay with INS1 was 2 µM (active).
